The record followed here is PMC11628833 (Acta Pharmaceutica Sinica. B, 2024).

Molecules are shown by their SMILES.

Test [1] deals with T1, TLR9 (Homo sapiens, UniProt Q9NR96).
T1 sequence (Q9NR96 26-1032): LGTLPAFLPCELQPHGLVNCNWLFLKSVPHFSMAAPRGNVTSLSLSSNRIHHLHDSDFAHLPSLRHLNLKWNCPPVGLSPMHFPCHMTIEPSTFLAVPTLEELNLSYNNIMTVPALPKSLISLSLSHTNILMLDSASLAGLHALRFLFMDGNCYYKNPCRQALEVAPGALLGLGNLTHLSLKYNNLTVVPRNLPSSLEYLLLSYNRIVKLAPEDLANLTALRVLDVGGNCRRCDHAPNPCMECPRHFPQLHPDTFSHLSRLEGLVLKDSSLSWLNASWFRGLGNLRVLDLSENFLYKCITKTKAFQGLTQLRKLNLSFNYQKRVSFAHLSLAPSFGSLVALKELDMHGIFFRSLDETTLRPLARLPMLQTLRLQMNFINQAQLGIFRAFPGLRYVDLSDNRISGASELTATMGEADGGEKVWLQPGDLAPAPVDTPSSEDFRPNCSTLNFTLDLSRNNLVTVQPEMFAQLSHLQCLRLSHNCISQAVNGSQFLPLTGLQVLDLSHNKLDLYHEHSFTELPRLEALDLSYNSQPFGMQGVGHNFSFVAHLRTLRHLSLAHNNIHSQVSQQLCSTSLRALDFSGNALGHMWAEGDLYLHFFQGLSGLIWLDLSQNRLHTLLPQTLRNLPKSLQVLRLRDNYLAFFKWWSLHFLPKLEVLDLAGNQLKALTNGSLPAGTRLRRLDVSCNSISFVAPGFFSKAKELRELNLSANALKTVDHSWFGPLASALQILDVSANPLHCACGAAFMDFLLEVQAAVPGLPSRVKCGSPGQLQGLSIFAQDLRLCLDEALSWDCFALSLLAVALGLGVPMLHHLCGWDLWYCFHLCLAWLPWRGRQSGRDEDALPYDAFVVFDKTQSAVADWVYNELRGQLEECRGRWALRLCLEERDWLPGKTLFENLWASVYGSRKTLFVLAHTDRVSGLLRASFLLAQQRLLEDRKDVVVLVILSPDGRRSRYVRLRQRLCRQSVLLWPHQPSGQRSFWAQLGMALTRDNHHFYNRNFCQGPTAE
The test can be described thus: Specificity test in HEK-Blue TLR-overexpressing cells, TLR9. The class given is cell-based. Conditions: 5 μM S-1, HEK-Blue TLR cells, TLR-specific agonist.

Test [2] concerns the target T2, hTLR8 (Homo sapiens, UniProt Q9NR97).
T2 sequence (Q9NR97 27-1041): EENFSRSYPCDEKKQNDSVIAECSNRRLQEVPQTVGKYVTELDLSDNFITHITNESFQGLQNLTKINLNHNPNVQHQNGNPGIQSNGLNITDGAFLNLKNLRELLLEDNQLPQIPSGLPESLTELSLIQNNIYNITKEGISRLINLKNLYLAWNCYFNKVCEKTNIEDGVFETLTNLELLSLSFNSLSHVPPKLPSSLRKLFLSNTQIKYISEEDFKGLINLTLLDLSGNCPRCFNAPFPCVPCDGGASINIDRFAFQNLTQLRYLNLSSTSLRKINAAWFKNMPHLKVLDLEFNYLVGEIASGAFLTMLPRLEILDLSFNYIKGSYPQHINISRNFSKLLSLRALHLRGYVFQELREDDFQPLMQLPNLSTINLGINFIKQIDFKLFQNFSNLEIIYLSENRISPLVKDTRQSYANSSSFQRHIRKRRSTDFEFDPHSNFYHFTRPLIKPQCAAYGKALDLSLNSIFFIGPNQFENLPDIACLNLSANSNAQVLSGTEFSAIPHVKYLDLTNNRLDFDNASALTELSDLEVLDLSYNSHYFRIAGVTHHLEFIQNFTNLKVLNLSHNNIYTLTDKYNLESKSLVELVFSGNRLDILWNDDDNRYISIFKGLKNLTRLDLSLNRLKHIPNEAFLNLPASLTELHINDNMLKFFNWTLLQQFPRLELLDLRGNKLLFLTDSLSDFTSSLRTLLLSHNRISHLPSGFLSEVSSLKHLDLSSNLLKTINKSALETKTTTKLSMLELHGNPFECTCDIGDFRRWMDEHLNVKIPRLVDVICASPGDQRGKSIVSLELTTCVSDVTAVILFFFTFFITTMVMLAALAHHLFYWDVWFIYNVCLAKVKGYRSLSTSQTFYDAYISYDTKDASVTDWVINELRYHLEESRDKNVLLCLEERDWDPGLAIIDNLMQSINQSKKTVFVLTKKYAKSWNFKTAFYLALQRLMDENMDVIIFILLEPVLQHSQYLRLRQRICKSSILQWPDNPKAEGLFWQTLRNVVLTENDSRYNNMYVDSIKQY
The test can be described thus: SEAP reporter assay in HEK-Blue hTLR8 cells. The class given is cell-based. Background: Reporter assays use an easily measured gene product as a stand-in for the process of interest.

As usually defined, the IC50 is the concentration needed to halve the response being measured. Read a high IC50 as a need for much substance. With `O=C(c1ccc(Cl)cc1)N1CCN(c2ccc([N+](=O)[O-])c3ncccc23)CC1` [Compound S1], the “inhibition of TLR9” value in test [1] is reported as “no obvious inhibition”. Further, the IC50 in test [2] was 130 ± 30 nM.
